assay: method code SF, from Craig, N. (1990). Drug Compendium. In Hansch, C (Ed.), Comprehensive Medicinal Chemistry. Pergamon Press.; conditions: not given

Row | SMILES | logP
1 | OC[C@@H](O)[C@H]1O[C@@H]2O[C@H](C(Cl)(Cl)Cl)O[C@@H]2[C@H]1O | 1.02
2 | CCN(CC)CCNc1ccc(CO)c2sc3ccccc3c(=O)c12 | 2.7
3 | COc1cc2c(cc1OC)C(CCCCC1NCCc3cc(OC)c(OC)cc31)NCC2 (stereo not drawn) | 3.35
4 | CC(C)S(=O)(=O)n1c(N)nc2ccc(/C(=N\O)c3ccccc3)cc21 | 3.1
5 | C[C@]12CCC(=O)C=C1CC[C@@H]1[C@@H]2CC[C@@]2(C)[C@H]1CC[C@]2(O)C(=O)CO | 2.52
6 | N=C(N)N1CCc2ccccc2C1 | 0.75
7 | CN1CC[C@@]23CCCC[C@@H]2[C@@H]1Cc1ccc(O)cc13 | 3.11
8 | CC(=O)[C@H]1CC[C@H]2[C@@H]3C[C@H](C)C4=CC(=O)CC[C@]4(C)[C@H]3C(=O)C[C@]12C | 2.75
9 | COc1cc(S(C)=O)ccc1-c1nc2ncccc2[nH]1 (stereo not drawn) | 1.17
10 | OCCN1CCN([C@@H]2C[C@@H](c3ccc(F)cc3)c3ccc(C(F)(F)F)cc32)CC1 | 4.39
11 | CCN[C@@H](C)Cc1cccc(C(F)(F)F)c1 | 3.36
12 | N#Cc1ccccc1OCC(O)CNCCNC(=O)Cc1ccc(O)cc1 (stereo not drawn) | 0.92
13 | O=[N+]([O-])c1cnc(-c2ccc(F)cc2)n1CCO | 1.33
14 | CC(C)/N=C(N)/N=C(\N)Nc1ccc(Cl)cc1 | 2.53
15 | CCC1(CC)C(=O)NCC(C)C1=O (stereo not drawn) | 0.78
16 | Cc1ncc([N+](=O)[O-])n1CCOC(N)=O | -0.29
17 | C=CCC1(C(C)CC)C(=O)NC(=O)NC1=O (stereo not drawn) | 1.47
18 | CCC(OC(C)=O)C(CC(C)N(C)C)(c1ccccc1)c1ccccc1 (stereo not drawn) | 4.27

Row | SMILES | logP
19 | NC(=O)CCC/N=C(\c1ccc(Cl)cc1)c1cc(F)ccc1O | 2.97
20 | COc1cc(NS(=O)(=O)c2ccc(N)cc2)ncn1 | 0.7
21 | Nc1ncn([C@@H]2O[C@H](CO)[C@@H](O)[C@@H]2O)c(=O)n1 | -2.17
22 | CC(=O)O[C@H]1C[C@H](O[C@H]2[C@@H](O)C[C@H](O[C@H]3[C@@H](O)C[C@H](O[C@H]4CC[C@@]5(C)[C@H](CC[C@@H]6[C@@H]5CC[C@]5(C)[C@@H](C7=CC(=O)OC7)CC[C@]65O)C4)O[C@@H]3C)O[C@@H]2C)O[C@H](C)[C@H]1O | 1.97
23 | Cc1ccccc1-n1c(C)nc2ccccc2c1=O | 2.5
24 | CCC(O)C(CC(C)N(C)C)(c1ccccc1)c1ccccc1 (stereo not drawn) | 4.27
25 | CCC(=O)O[C@]1(c2ccccc2)CCN(C)C[C@H]1CC | 3.61
26 | CCNC1C2CCC(C2)C1c1ccccc1 (stereo not drawn) | 3.2
27 | Nc1ccc(S(=O)(=O)c2ccc(N)cc2)cc1 | 1.03
28 | CCc1ncc([N+](=O)[O-])n1CCNC(=S)OC | 1.46
29 | NCc1ccccc1Sc1ccccc1CO | 2.39
30 | C[C@@H]1C[C@H]2[C@@H]3C[C@H](F)C4=CC(=O)C=C[C@]4(C)[C@@]3(F)[C@@H](O)C[C@]2(C)[C@H]1C(=O)COC(=O)C(C)(C)C | 3.86
31 | Cc1ncc([N+](=O)[O-])n1CCc1ccncc1 | 0.06
32 | CN(C)CCN1C(=O)c2ccccc2Nc2cc(Cl)ccc21 | 3.73
33 | CN(C)CCC1CN(C)C(=S)c2cnccc2O1 (stereo not drawn) | 1.08
34 | CSc1ccc(OCc2ncc([N+](=O)[O-])n2C)cc1 | 2.5
35 | NC(=O)c1csc([C@@H]2O[C@H](CO)[C@@H](O)[C@H]2O)n1 | -1.73

same assay, conditions: pH 4.9

Row | SMILES | logD
36 | CCOC(=O)[C@H](CCc1ccccc1)N[C@H]1CCCN2CCC[C@@H](C(=O)O)N2C1=O | 0.55
37 | CCOC(=O)[C@H](CCc1ccccc1)N[C@@H](C)C(=O)N1CCC[C@H]1C(=O)O | -0.07

same assay, conditions: pH 7.4

Row | SMILES | logD
38 | CCOC(=O)C=C1SC(N2CCCCC2)C(=O)N1C (stereo not drawn) | 2.3
